Target: T1, human Cot/Tpl2 kinase (Homo sapiens, UniProt P41279)
T1 construct: human Cot/Tpl2 kinase construct encoding residues 30-398; 6His (N); made in house; host or cells: Sf9 insect cells, baculovirus system (BD Biosciences)
Test: Tpl2/Cot kinase assay: GST-MEK1 phosphorylation detected by ELISA (DELFIA Eu)
Assay type: biochemical
Details: Tpl2/Cot kinase, GST-MEK1 substrate, 50 uM ATP, 1 h at 30° C.; Table 2
How it was run: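 Substrate phosphorylation (GST-MEK1 Ser217/221) quantified by DELFIA europium ELISA, yielding IC50 values. Reaction: 1 h at 30° C, pH 7.2 MOPS buffer, 50 uM ATP, 35 nM GST-MEK1, 0.4 nM monomeric His-Tpl2 purified from Sf9 cells, compounds at 1% final DMSO; stopped with EDTA.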

T1 sequence (P41279 30-398): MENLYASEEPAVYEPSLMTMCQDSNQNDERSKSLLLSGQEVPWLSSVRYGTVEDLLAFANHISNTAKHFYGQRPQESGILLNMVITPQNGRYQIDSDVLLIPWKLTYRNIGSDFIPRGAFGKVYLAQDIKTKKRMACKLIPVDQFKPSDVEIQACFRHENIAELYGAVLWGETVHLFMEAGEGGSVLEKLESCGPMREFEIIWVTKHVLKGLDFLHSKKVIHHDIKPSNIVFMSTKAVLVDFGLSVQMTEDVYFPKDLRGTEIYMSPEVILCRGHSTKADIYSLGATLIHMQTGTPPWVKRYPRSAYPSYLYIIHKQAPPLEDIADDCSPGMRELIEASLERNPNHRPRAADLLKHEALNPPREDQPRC

| IC50 | Compound |
| --- | --- |
| 150 nM | N#Cc1cnc2c(Cl)cc(NCc3cn(CCN4CCN(CC5CC5)CC4)nn3)cc2c1Nc1ccc(F)c(Cl)c1 [Example 966] |
| 460 nM | CN1CCCC1CCn1cc(CNc2ccc3ncc(C#N)c(NC4CCCCC4)c3c2)nn1 (centres unmarked) [Example 967] |
| 670 nM | CC(C)(C)OC(=O)N1CCC(n2cc(CNc3ccc4ncc(C#N)c(NC5CCCCC5)c4c3)nn2)CC1 [Example 968] |
| 380 nM | CN(C)CCn1cc(CNc2ccc3ncc(C#N)c(NC4CCCCC4)c3c2)nn1 [Example 969] |
| 510 nM | N#Cc1cnc2ccc(NCc3cn(CCN4CCCCCC4)nn3)cc2c1NC1CCCCC1 [Example 970] |
| > 3000 nM | CN1CCCC1CCn1cc(CNc2cc(Cl)c3ncc(C#N)c(NC4CCC5(CCCCC5)CC4)c3c2)nn1 (centres unmarked) [Example 971] |
| > 3000 nM | CN1CCCC1CCn1cc(CNc2cc(Cl)c3ncc(C#N)c(NC4CCCC5(CCCC5)C4)c3c2)nn1 (centres unmarked) [Example 972] |
| > 3000 nM | CC(C)(C)OC(=O)N1CCC(n2cc(CNc3cc(Cl)c4ncc(C#N)c(NC5CCC6(CCCCC6)CC5)c4c3)nn2)CC1 [Example 973] |
| > 3000 nM | CC(C)(C)OC(=O)N1CCC(n2cc(CNc3cc(Cl)c4ncc(C#N)c(NC5CCCC6(CCCC6)C5)c4c3)nn2)CC1 (centres unmarked) [Example 974] |
| > 3000 nM | N#Cc1cnc2c(Cl)cc(NCc3cn(CCN4CCCCCC4)nn3)cc2c1NC1CCC2(CCCCC2)CC1 [Example 975] |
| > 3000 nM | N#Cc1cnc2c(Cl)cc(NCc3cn(CCN4CCCCCC4)nn3)cc2c1NC1CCCC2(CCCC2)C1 (centres unmarked) [Example 976] |
| 130 nM | N#Cc1cnc2ccc(NCc3cn(C4CCNCC4)nn3)cc2c1NC1CCCCC1 [Example 977] |
| > 3000 nM | N#Cc1cnc2c(Cl)cc(NCc3cn(C4CCNCC4)nn3)cc2c1NC1CCC2(CCCCC2)CC1 [Example 978] |
| 970 nM | N#Cc1cnc2c(Cl)cc(NCc3cn(C4CCNCC4)nn3)cc2c1NC1CCCC2(CCCC2)C1 (centres unmarked) [Example 979] |
| 24 nM | COC(=O)N1CCC(n2cc(CNc3cc(Cl)c4ncc(C#N)c(Nc5ccc(F)c(Cl)c5)c4c3)nn2)CC1 [Example 980] |
| 610 nM | COC(=O)N1CCC(n2cc(CN(C(=O)OC)c3cc(Cl)c4ncc(C#N)c(Nc5ccc(F)c(Cl)c5)c4c3)nn2)CC1 [Example 981] |
| 31 nM | N#Cc1cnc2c(Cl)cc(NCc3cn(C4CCN(C(=O)OCCF)CC4)nn3)cc2c1Nc1ccc(F)c(Cl)c1 [Example 982] |
| > 3000 nM | N#Cc1cnc2c(Cl)cc(N(Cc3cn(C4CCN(C(=O)OCCF)CC4)nn3)C(=O)OCCF)cc2c1Nc1ccc(F)c(Cl)c1 [Example 983] |
| 1090 nM | CN(C)CCn1cc(CNc2cc(Cl)c3ncc(C#N)c(NCC(F)(F)F)c3c2)nn1 [Example 984] |
| 1410 nM | N#Cc1cnc2c(Cl)cc(NCc3cn(CCN4CCCCC4)nn3)cc2c1NCC(F)(F)F [Example 985] |
| 350 nM | N#Cc1cnc2c(Cl)cc(NCc3cn(C4CCNCC4)nn3)cc2c1NC1CCC1 [Example 986] |
| 1100 nM | N#Cc1cnc2c(Cl)cc(NCc3cn(C4CCNCC4)nn3)cc2c1NC1CCOCC1 [Example 987] |
| > 3000 nM | N#Cc1cnc2c(Cl)cc(NCc3cn(CCN4CCCCCC4)nn3)cc2c1Nc1ccc(Oc2ccccc2)cc1 [Example 988] |

| IC50 | Compound |
| --- | --- |
| 400 nM | CC(C)(C)OC(=O)N1CCC(n2cc(CNc3cc(Cl)c4ncc(C#N)c(Nc5ccc(Oc6ccccc6)cc5)c4c3)nn2)CC1 [Example 989] |
| 830 nM | CN1CCCC1CCn1cc(CNc2cc(Cl)c3ncc(C#N)c(Nc4ccc(Oc5ccccc5)cc4)c3c2)nn1 (centres unmarked) [Example 990] |
| 8.2 nM | N#Cc1cnc2c(Cl)cc(NCc3cn(C4CCN(C[C@@H](O)[C@H](O)CO)CC4)nn3)cc2c1Nc1ccc(F)c(Cl)c1 [Example 991] |
| 2 nM | N#Cc1cnc2c(Cl)cc(NCc3cn(C4CCN(CCO)CC4)nn3)cc2c1Nc1ccc(F)c(Cl)c1 [Example 992] |
| 48 nM | N#Cc1cnc2c(Cl)cc(NCc3cn(CC(O)c4ccccn4)nn3)cc2c1Nc1ccc(F)c(Cl)c1 (centres unmarked) [Example 993] |
| 6.8 nM | N#Cc1cnc2c(Cl)cc(NCc3cn(C4CCN(CC(O)CO)CC4)nn3)cc2c1Nc1ccc(F)c(Cl)c1 (centres unmarked) [Example 994] |
| 240 nM | CC#CCn1cc(CNc2cc(Cl)c3ncc(C#N)c(Nc4ccc(F)c(Cl)c4)c3c2)nn1 [Example 995] |
| > 3000 nM | Cc1cc(CNc2cc(Cl)c3ncc(C#N)c(Nc4ccc(F)c(Cl)c4)c3c2)no1 [Example 996] |
| 11 nM | N#Cc1cnc2c(Cl)cc(NCc3cn(C4CC5CCC(C4)N5)nn3)cc2c1Nc1ccc(F)c(Cl)c1 (centres unmarked) [Example 997] |
| 22 nM | N#CCN1CCC(n2cc(CNc3cc(Cl)c4ncc(C#N)c(Nc5ccc(F)c(Cl)c5)c4c3)nn2)CC1 [Example 998] |
| 130 nM | CC(C)N1CCC(n2cc(CNc3cc(Cl)c4ncc(C#N)c(NC5CCC5)c4c3)nn2)CC1 [Example 999] |
| 480 nM | CC(C)N1CCC(n2cc(CNc3cc(Cl)c4ncc(C#N)c(NC5CCOCC5)c4c3)nn2)CC1 [Example 1000] |
| 19 nM | N#Cc1cnc2c(Cl)cc(NCc3cn(CC(O)c4ccncc4)nn3)cc2c1Nc1ccc(F)c(Cl)c1 (centres unmarked) [Example 1001] |
| > 3000 nM | N#Cc1cnc2c(Cl)cc(NCc3cccs3)cc2c1Nc1ccc(F)c(Cl)c1 [Example 1002] |
| 17 nM | N#Cc1cnc2c(Cl)cc(NCc3cn(C4CCN(C5CC5)CC4)nn3)cc2c1Nc1ccc(F)c(Cl)c1 [Example 1003] |
| > 3000 nM | N#Cc1cnc2c(Cl)cc(NCc3cc(Br)cs3)cc2c1Nc1ccc(F)c(Cl)c1 [Example 1004] |
| 41 nM | CCN1C2CCC1CC(n1cc(CNc3cc(Cl)c4ncc(C#N)c(Nc5ccc(F)c(Cl)c5)c4c3)nn1)C2 (centres unmarked) [Example 1005] |
| 240 nM | CC(C)(C)OC(=O)N1CCCC(n2cc(CNc3cc(Cl)c4ncc(C#N)c(Nc5ccc(F)c(Cl)c5)c4c3)nn2)CC1 (centres unmarked) [Example 1006] |
| 16 nM | N#Cc1cnc2c(Cl)cc(NCc3cn(C4CCCNCC4)nn3)cc2c1Nc1ccc(F)c(Cl)c1 (centres unmarked) [Example 1007] |
| 490 nM | N#Cc1cnc2c(Cl)cc(NCc3cn(C4CCN(c5ncccc5C(F)(F)F)CC4)nn3)cc2c1Nc1ccc(F)c(Cl)c1 [Example 1008] |
| 270 nM | N#Cc1cnc2c(Cl)cc(NCc3cn(C4CCCN(CC(F)(F)F)CC4)nn3)cc2c1Nc1ccc(F)c(Cl)c1 (centres unmarked) [Example 1009] |
| 310 nM | N#Cc1cnc2c(Cl)cc(NCc3cn(C4CCCN(CC(F)F)CC4)nn3)cc2c1Nc1ccc(F)c(Cl)c1 (centres unmarked) [Example 1010] |
| 9.1 nM | N#Cc1cnc2c(Cl)cc(NCc3cn(C4CCCN(CCF)CC4)nn3)cc2c1Nc1ccc(F)c(Cl)c1 (centres unmarked) [Example 1011] |

| IC50 | Compound |
| --- | --- |
| > 3000 nM | N#Cc1cnc2c(Cl)cc(NCc3cn(C4CCCN(CC(F)(F)C(F)(F)F)CC4)nn3)cc2c1Nc1ccc(F)c(Cl)c1 (centres unmarked) [Example 1012] |
| 430 nM | N#Cc1cnc2c(Cl)cc(NCc3cn(C4CCCN(CC(F)(F)C(F)F)CC4)nn3)cc2c1Nc1ccc(F)c(Cl)c1 (centres unmarked) [Example 1013] |
| 280 nM | N#Cc1cnc2c(Cl)cc(NCc3cn(C4CCN(CC(F)(F)F)CC4)nn3)cc2c1Nc1ccc(F)c(Cl)c1 [Example 1014] |
| 92 nM | N#Cc1cnc2c(Cl)cc(NCc3cn(C4CCN(CC(F)F)CC4)nn3)cc2c1Nc1ccc(F)c(Cl)c1 [Example 1015] |
| 15 nM | N#Cc1cnc2c(Cl)cc(NCc3cn(C4CCN(CCF)CC4)nn3)cc2c1Nc1ccc(F)c(Cl)c1 [Example 1016] |
| 1040 nM | N#Cc1cnc2c(Cl)cc(NCc3cn(C4CCN(CC(F)(F)C(F)(F)F)CC4)nn3)cc2c1Nc1ccc(F)c(Cl)c1 [Example 1017] |
| 400 nM | N#Cc1cnc2c(Cl)cc(NCc3cn(C4CCN(CC(F)(F)C(F)F)CC4)nn3)cc2c1Nc1ccc(F)c(Cl)c1 [Example 1018] |
| > 3000 nM | N#Cc1cnc2c(Cl)cc(NCc3cncc(C(O)(C(F)(F)F)C(F)(F)F)c3)cc2c1Nc1ccc(F)c(Cl)c1 [Example 1019] |
| 130 nM | N#Cc1cnc2c(Cl)cc(NCc3cn(CCc4cccnc4)nn3)cc2c1Nc1ccc(F)c(Cl)c1 [Example 1020] |
| 430 nM | N#CCn1cc(CNc2cc(Cl)c3ncc(C#N)c(Nc4ccc(F)c(Cl)c4)c3c2)nn1 [Example 1021] |
| 980 nM | CN(C)CCCc1csc(CNc2cc(Cl)c3ncc(C#N)c(Nc4ccc(F)c(Cl)c4)c3c2)c1 [Example 1022] |
| 1160 nM | CN(C)CC#Cc1csc(CNc2cc(Cl)c3ncc(C#N)c(Nc4ccc(F)c(Cl)c4)c3c2)c1 [Example 1023] |
| > 3000 nM | N#Cc1cnc2c(Cl)cc(NCc3cc(Br)co3)cc2c1Nc1ccc(F)c(Cl)c1 [Example 1024] |
| 910 nM | N#Cc1cnc2c(Cl)cc(NCc3cn(Cc4cncc(C(O)(C(F)(F)F)C(F)(F)F)c4)nn3)cc2c1Nc1ccc(F)c(Cl)c1 [Example 1025] |
| 290 nM | Cn1cc(CNc2cc(Cl)c3ncc(C#N)c(Nc4ccc(F)c(Cl)c4)c3c2)cn1 [Example 1026] |
| 7.9 nM | N#Cc1cnc2c(Cl)cc(NCc3cn(C4CCN(CC5CC5)CC4)nn3)cc2c1Nc1ccc(F)c(Cl)c1 [Example 1027] |
| 410 nM | N#Cc1cnc2c(Cl)cc(N(Cc3cn(C4CCN(CC5CC5)CC4)nn3)CC3CC3)cc2c1Nc1ccc(F)c(Cl)c1 [Example 1028] |
| 290 nM | N#Cc1cnc2c(Cl)cc(N(Cc3cn(C4CCN(C5CCC5)CC4)nn3)C3CCC3)cc2c1Nc1ccc(F)c(Cl)c1 [Example 1029] |
| 12 nM | N#Cc1cnc2c(Cl)cc(NCc3cn(C4CCCN(C5CCC5)CC4)nn3)cc2c1Nc1ccc(F)c(Cl)c1 (centres unmarked) [Example 1030] |
| 160 nM | CC(C)(C)OC(=O)N1CCC(O)(c2cncc(CNc3cc(Cl)c4ncc(C#N)c(Nc5ccc(F)c(Cl)c5)c4c3)c2)CC1 [Example 1031] |
| > 3000 nM | N#Cc1cnc2c(Cl)cc(NCc3cncc(C4(O)CCNCC4)c3)cc2c1Nc1ccc(F)c(Cl)c1 [Example 1032] |

| Compound | IC50 |
| --- | --- |
| CC(C)N1CCC(O)(c2cncc(CNc3cc(Cl)c4ncc(C#N)c(Nc5ccc(F)c(Cl)c5)c4c3)c2)CC1 [Example 1033] | 500 nM |

Reference: US20060264460A1 (Wyeth, priority 2005, published 2006)
